From ChEMBL document CHEMBL2177037, “10'-Fluorovinblastine and 10'-Fluorovincristine: Synthesis of a Key Series of Modified Vinca Alkaloids” (ACS Med Chem Lett, 2011)
The source made the active and inactive calls. The calls are words filed in the database; no cut-off is given here.

Tests used:
HCT-116 [1] = test: Cytotoxicity against human HCT116 cells; format: functional, cell-based
L1210 [2] = test: Ratio of vinblastin IC50 to compound IC50 for mouse L1210 cells; format: functional
HCT-116/VM46 [3] = test: Cytotoxicity against human vinblastin-resistant HCT116/VM46 cells; format: functional, cell-based
L1210 [4] = test: Cytotoxicity against mouse L1210 cells; format: functional, cell-based
HCT-116 [5] = test: Ratio of vinblastin IC50 to compound IC50 for human HCT116 cells; format: functional
HCT-116/VM46 [6] = test: Antitumor activity against human HCT116/VM46 cells xenografted in mouse assessed as mouse survival at 0.01 to 0.5 mg/kg, ip after 110 days; format: functional, organism-based
HCT-116/VM46 [7] = test: Ratio of vinblastin IC50 to compound IC50 for human vinblastin-resistant HCT116/VM46 cells; format: functional
HCT-116/VM46 [8] = test: Ratio of vincristine IC50 to compound IC50 for human vincristine-resistant HCT116/VM46 cells; format: functional
HCT-116 [9] = test: Ratio of vincristine IC50 to compound IC50 for human HCT116 cells; format: functional
L1210 [10] = test: Ratio of vincristine IC50 to compound IC50 for mouse L1210 cells; format: functional
HCT-116 [11] = test: Antitumor activity against human HCT116 cells xenografted in mouse assessed as mouse survival at 0.5 mg/kg; format: functional, organism-based; parameters: dose 0.5 mg/kg

Row | SMILES | IC50 (HCT-116 [1]) [nM] | IC50 (HCT-116/VM46 [3]) [nM] | IC50 (L1210 [4]) [nM] | further results
1 | CC[C@]1(O)C[C@H]2CN(CCc3c([nH]c4ccc(F)cc34)[C@@](C(=O)OC)(c3cc4c(cc3OC)N(C)[C@H]3[C@@](O)(C(=O)OC)[C@H](OC(C)=O)[C@]5(CC)C=CCN6CC[C@]43[C@@H]65)C2)C1 | 0.8 | 80 | 0.7 | Ratio IC50 (L1210 [2]): 8; Ratio IC50 (HCT-116 [5]): 8; Activity (HCT-116/VM46 [6]): Active; Ratio IC50 (HCT-116/VM46 [7]): 8
2 | CC[C@]1(O)C[C@H]2CN(CCc3c([nH]c4c(I)cccc34)[C@@](C(=O)OC)(c3cc4c(cc3OC)N(C)[C@H]3[C@@](O)(C(=O)OC)[C@H](OC(C)=O)[C@]5(CC)C=CCN6CC[C@]43[C@@H]65)C2)C1 | 80 | 910 | 55 | –
3 | CCC1=C[C@H]2CN(CCc3c([nH]c4c(I)cccc34)[C@@](C(=O)OC)(c3cc4c(cc3OC)N(C)[C@H]3[C@@](O)(C(=O)OC)[C@H](OC(C)=O)[C@]5(CC)C=CCN6CC[C@]43[C@@H]65)C2)C1 | 870 | 6200 | 690 | –
4 | CC[C@]1(O)C[C@H]2CN(CCc3c([nH]c4ccc(I)cc34)[C@@](C(=O)OC)(c3cc4c(cc3OC)N(C)[C@H]3[C@@](O)(C(=O)OC)[C@H](OC(C)=O)[C@]5(CC)C=CCN6CC[C@]43[C@@H]65)C2)C1 | 60 | 840 | 55 | –
5 | CC[C@]1(O)C[C@H]2CN(CCc3c([nH]c4ccc(C)cc34)[C@@](C(=O)OC)(c3cc4c(cc3OC)N(C)[C@H]3[C@@](O)(C(=O)OC)[C@H](OC(C)=O)[C@]5(CC)C=CCN6CC[C@]43[C@@H]65)C2)C1 | 7.8 | 600 | 7.8 | –
6 | CCC1=C[C@H]2CN(CCc3c([nH]c4ccc(O)cc34)[C@@](C(=O)OC)(c3cc4c(cc3OC)N(C)[C@H]3[C@@](O)(C(=O)OC)[C@H](OC(C)=O)[C@]5(CC)C=CCN6CC[C@]43[C@@H]65)C2)C1 | 500 | 7200 | 590 | –
7 | CC[C@]1(O)C[C@H]2CN(CCc3c([nH]c4c(Br)cccc34)[C@@](C(=O)OC)(c3cc4c(cc3OC)N(C)[C@H]3[C@@](O)(C(=O)OC)[C@H](OC(C)=O)[C@]5(CC)C=CCN6CC[C@]43[C@@H]65)C2)C1 | 80 | 910 | 50 | –
8 | CC[C@]1(O)C[C@H]2CN(CCc3c([nH]c4ccc(SC)cc34)[C@@](C(=O)OC)(c3cc4c(cc3OC)N(C)[C@H]3[C@@](O)(C(=O)OC)[C@H](OC(C)=O)[C@]5(CC)C=CCN6CC[C@]43[C@@H]65)C2)C1 | 50 | 780 | 50 | –
9 | CC[C@]1(O)C[C@H]2CN(CCc3c([nH]c4ccc(Cl)cc34)[C@@](C(=O)OC)(c3cc4c(cc3OC)N(C)[C@H]3[C@@](O)(C(=O)OC)[C@H](OC(C)=O)[C@]5(CC)C=CCN6CC[C@]43[C@@H]65)C2)C1 | 7.6 | 720 | 6.2 | –
10 | CCC1=C[C@H]2CN(CCc3c([nH]c4ccc(C#N)cc34)[C@@](C(=O)OC)(c3cc4c(cc3OC)N(C)[C@H]3[C@@](O)(C(=O)OC)[C@H](OC(C)=O)[C@]5(CC)C=CCN6CC[C@]43[C@@H]65)C2)C1 | 70 | 920 | 65 | –
11 | CCC1=C[C@H]2CN(CCc3c([nH]c4ccc(F)cc34)[C@@](C(=O)OC)(c3cc4c(cc3OC)N(C)[C@H]3[C@@](O)(C(=O)OC)[C@H](OC(C)=O)[C@]5(CC)C=CCN6CC[C@]43[C@@H]65)C2)C1 | 50 | 290 | 30 | –
12 | CCC1=C[C@H]2CN(CCc3c([nH]c4ccc(C)cc34)[C@@](C(=O)OC)(c3cc4c(cc3OC)N(C)[C@H]3[C@@](O)(C(=O)OC)[C@H](OC(C)=O)[C@]5(CC)C=CCN6CC[C@]43[C@@H]65)C2)C1 | 65 | 640 | 65 | –
13 | CCC1=C[C@H]2CN(CCc3c([nH]c4ccc(Cl)cc34)[C@@](C(=O)OC)(c3cc4c(cc3OC)N(C)[C@H]3[C@@](O)(C(=O)OC)[C@H](OC(C)=O)[C@]5(CC)C=CCN6CC[C@]43[C@@H]65)C2)C1 | 70 | 800 | 60 | –
14 | CCC1=C[C@H]2CN(CCc3c([nH]c4ccc(OC)cc34)[C@@](C(=O)OC)(c3cc4c(cc3OC)N(C)[C@H]3[C@@](O)(C(=O)OC)[C@H](OC(C)=O)[C@]5(CC)C=CCN6CC[C@]43[C@@H]65)C2)C1 | 640 | 5500 | 550 | –
15 | CCC1=C[C@H]2CN(CCc3c([nH]c4c(Br)cccc34)[C@@](C(=O)OC)(c3cc4c(cc3OC)N(C)[C@H]3[C@@](O)(C(=O)OC)[C@H](OC(C)=O)[C@]5(CC)C=CCN6CC[C@]43[C@@H]65)C2)C1 | 740 | 3900 | 600 | –
16 | CCC1=C[C@H]2CN(CCc3c([nH]c4ccccc34)[C@@](C(=O)OC)(c3cc4c(cc3OC)N(C)[C@H]3[C@@](O)(C(=O)OC)[C@H](OC(C)=O)[C@]5(CC)C=CCN6CC[C@]43[C@@H]65)C2)C1 | 75 | 600 | 65 | –
17 | CC[C@]1(O)C[C@H]2CN(CCc3c([nH]c4ccc(F)cc34)[C@@](C(=O)OC)(c3cc4c(cc3OC)N(C=O)[C@H]3[C@@](O)(C(=O)OC)[C@H](OC(C)=O)[C@]5(CC)C=CCN6CC[C@]43[C@@H]65)C2)C1 | 1.5 | – | 0.8 | Ratio IC50 (HCT-116/VM46 [8]): 5; Ratio IC50 (HCT-116 [9]): 5; Ratio IC50 (L1210 [10]): 5
18 | CCC1=C[C@H]2CN(CCc3c([nH]c4c(Cl)cccc34)[C@@](C(=O)OC)(c3cc4c(cc3OC)N(C)[C@H]3[C@@](O)(C(=O)OC)[C@H](OC(C)=O)[C@]5(CC)C=CCN6CC[C@]43[C@@H]65)C2)C1 | 880 | 7300 | 640 | –
19 | CC[C@]1(O)C[C@H]2CN(CCc3c([nH]c4ccccc34)[C@@](C(=O)OC)(c3cc4c(cc3OC)N(C=O)[C@H]3[C@@](O)(C(=O)OC)[C@H](OC(C)=O)[C@]5(CC)C=CCN6CC[C@]43[C@@H]65)C2)C1 [VINCRISTINE] | 7 | – | 6 | –
20 | CCC1=C[C@H]2CN(CCc3c([nH]c4ccc(Br)cc34)[C@@](C(=O)OC)(c3cc4c(cc3OC)N(C)[C@H]3[C@@](O)(C(=O)OC)[C@H](OC(C)=O)[C@]5(CC)C=CCN6CC[C@]43[C@@H]65)C2)C1 | 70 | 860 | 65 | –
21 | CC[C@]1(O)C[C@H]2CN(CCc3c([nH]c4ccc(OC)cc34)[C@@](C(=O)OC)(c3cc4c(cc3OC)N(C)[C@H]3[C@@](O)(C(=O)OC)[C@H](OC(C)=O)[C@]5(CC)C=CCN6CC[C@]43[C@@H]65)C2)C1 | 720 | > 10000 | 670 | –
22 | CC[C@]1(O)C[C@H]2CN(CCc3c([nH]c4c(F)cccc34)[C@@](C(=O)OC)(c3cc4c(cc3OC)N(C)[C@H]3[C@@](O)(C(=O)OC)[C@H](OC(C)=O)[C@]5(CC)C=CCN6CC[C@]43[C@@H]65)C2)C1 | 65 | 730 | 50 | –
23 | CC[C@]1(O)C[C@@H]2CN(CCc3c([nH]c4ccccc34)[C@@](C(=O)OC)(c3cc4c(cc3OC)N(C)[C@H]3[C@@](O)(C(=O)OC)[C@H](OC(C)=O)[C@]5(CC)C=CCN6CC[C@]43[C@@H]65)C2)C1 [VINBLASTINE] | – | 600 | – | Activity (HCT-116 [11]): Active
24 | CCC1=C[C@H]2CN(CCc3c([nH]c4ccc(I)cc34)[C@@](C(=O)OC)(c3cc4c(cc3OC)N(C)[C@H]3[C@@](O)(C(=O)OC)[C@H](OC(C)=O)[C@]5(CC)C=CCN6CC[C@]43[C@@H]65)C2)C1 | 600 | 1800 | 620 | –
25 | CCC1=C[C@H]2CN(CCc3c([nH]c4ccc(SC)cc34)[C@@](C(=O)OC)(c3cc4c(cc3OC)N(C)[C@H]3[C@@](O)(C(=O)OC)[C@H](OC(C)=O)[C@]5(CC)C=CCN6CC[C@]43[C@@H]65)C2)C1 | 85 | 770 | 60 | –
26 | CC[C@]1(O)C[C@H]2CN(CCc3c([nH]c4ccc(C#N)cc34)[C@@](C(=O)OC)(c3cc4c(cc3OC)N(C)[C@H]3[C@@](O)(C(=O)OC)[C@H](OC(C)=O)[C@]5(CC)C=CCN6CC[C@]43[C@@H]65)C2)C1 | 620 | > 10000 | 630 | –
27 | CCC1=C[C@H]2CN(CCc3c([nH]c4c(F)cccc34)[C@@](C(=O)OC)(c3cc4c(cc3OC)N(C)[C@H]3[C@@](O)(C(=O)OC)[C@H](OC(C)=O)[C@]5(CC)C=CCN6CC[C@]43[C@@H]65)C2)C1 | 790 | 6700 | 650 | –
28 | CC[C@]1(O)C[C@H]2CN(CCc3c([nH]c4c(Cl)cccc34)[C@@](C(=O)OC)(c3cc4c(cc3OC)N(C)[C@H]3[C@@](O)(C(=O)OC)[C@H](OC(C)=O)[C@]5(CC)C=CCN6CC[C@]43[C@@H]65)C2)C1 | 220 | 5000 | 330 | –
29 | CC[C@]1(O)C[C@H]2CN(CCc3c([nH]c4ccc(Br)cc34)[C@@](C(=O)OC)(c3cc4c(cc3OC)N(C)[C@H]3[C@@](O)(C(=O)OC)[C@H](OC(C)=O)[C@]5(CC)C=CCN6CC[C@]43[C@@H]65)C2)C1 | 8.6 | 270 | 8 | –
